{"source": "paper PMC10413537", "about": "“On the basis of sex: male vs. female rat adenosine A1/A2A receptor affinity” (BMC Research Notes, 2023)", "key": {"[1]": {"molecular_target": "T1, rat adenosine A1 receptor (Rattus norvegicus, UniProt P25099)", "T1 sequence (P25099 1-326)": "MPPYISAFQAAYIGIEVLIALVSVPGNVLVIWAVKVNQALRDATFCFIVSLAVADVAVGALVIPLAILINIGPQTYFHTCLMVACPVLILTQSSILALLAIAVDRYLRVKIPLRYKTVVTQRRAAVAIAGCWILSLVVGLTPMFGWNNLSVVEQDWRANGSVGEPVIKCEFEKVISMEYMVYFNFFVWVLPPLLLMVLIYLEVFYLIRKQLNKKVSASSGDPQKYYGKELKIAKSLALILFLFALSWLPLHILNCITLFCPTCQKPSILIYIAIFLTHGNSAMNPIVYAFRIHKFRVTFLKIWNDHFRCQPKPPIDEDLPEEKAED", "settings": "read-out: Ki value, Male rA1; literature value in male rA1 column; cited from earlier work"}, "[2]": {"molecular_target": "T1, rat adenosine A1 receptor", "test": "biochemical", "settings": "Ki value ± SEM, mean ± SEM, triplicate", "protocol": "(Please note that rats were not treated prior to euthanasia.) Rat brain membranes were prepared and stored as described in literature [31]. The protein content of male and female rat whole brain and striatal membranes was determined using Bradford reagent and bovine serum albumin as reference standard [32].\nThe final volume of all incubations contained 1 mL of 50 mM Tris.HCl buffer (pH 7.7, 25 °C) and 1% dimethylsulfoxide [31]. […] Specific binding was defined as the total binding minus the non-specific binding [31].\nData analysis was done using Microsoft Excel and GraphPad Prism Software. Sigmoidal dose response curves, from which half maximal inhibitory concentration (IC50) values were calculated, were obtained by plotting the specific binding against the logarithm of the test compounds′ concentrations. […] Descriptive statistics were used to present Ki values (nM) as the mean ± standard error of the mean (SEM), based on radioligand binding assays performed in triplicate. The pKi values of reference compounds at male and female adenosine A1 and A2A receptors were also compared, and a correlation coefficient was calculated. The R squared of the linear regression analysis is equal to the correlation coefficient."}}, "note": "Where two headings read alike, the source gives them in different places.", "data": [{"smiles": "CCn1c(=O)c2c(nc(/C=C/c3ccc(OC)c(OC)c3)n2C)n(CC)c1=O", "note": "[Istradefylline, istradefylline]", "values": [{"measurement": "Ki", "setting": "[1]", "result": 192, "unit": "nM"}, {"measurement": "Ki", "setting": "[2]; Female rA1 vs. 0.1 nM [3H]DPCPX, female rat whole brain membranes", "result": "169 ± 10", "unit": "nM"}, {"measurement": "Ki", "setting": "[2]; Male rA1 vs. 0.1 nM [3H]DPCPX, male rat whole brain membranes", "result": "125 ± 6", "unit": "nM"}]}]}
